Measured values published in patent publication US6355799B1, “Substituted benzene compounds, process for their preparation, and herbicidal and defoliant compositions containing them” (ISK Americas Incorporated, priority 1997, dated 2002).

Experiments:
Assay type in all cases: in vivo
[1] = test system: johnsongrass (Sorghum halepense, SORHA); assay: Pre-emerge test, greenhouse herbicide activity screening; details: pre-emerge, 14 days after application, rating scale 0-100
Outline: (§1)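 Visual ratings on a 0-100 scale (0 no damage, 100 all plants dead) were taken at 14 days after treatment. Rates of 15-1000 g ai/ha in acetone, 187 l/ha, were sprayed onto soil one day after planting (pre-emerge) or onto 2-3 leaf plants with 0.25% v/v surfactant (post-emerge).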

[2] = test system: green foxtail (Setaria viridis, SETVI); assay: as above; details: pre-emerge, 14 days after application, rating scale 0-100
Outline: as §1

[3] = test system: large crabgrass (Digitaria sanguinalis, DIGSA); assay: as above; details: pre-emerge, 14 days after application, rating scale 0-100
Outline: as §1

[4] = test system: barnyardgrass (Echinochloa crus-galli, ECHCG); assay: as above; details: pre-emerge, 14 days after application, rating scale 0-100
Outline: as §1

[5] = test system: velvetleaf (Abutilon theophrasti, ABUTH); assay: as above; details: pre-emerge, 14 days after application, rating scale 0-100
Outline: as §1

[6] = test system: lambsquarters (Chenopodium album, CHEAL); assay: as above; details: pre-emerge, 14 days after application, rating scale 0-100
Outline: as §1

[7] = test system: sicklepod (Cassia obtusifolia, CASOB); assay: as above; details: pre-emerge, 14 days after application, rating scale 0-100
Outline: as §1

[8] = test system: ivyleaf morningglory (Ipomoea hederacea, IPOHE); assay: as above; details: pre-emerge, 14 days after application, rating scale 0-100
Outline: as §1

[9] = test system: johnsongrass (Sorghum halepense, SORHA); assay: Post-emerge test, greenhouse herbicide activity screening; details: post-emerge, 14 days after application, rating scale 0-100
Outline: (§2)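 Compounds in acetone were track-sprayed at 15–1000 g ai/ha: pre-emergence onto soil sown the previous day, then top-watered to incorporate and later bottom-watered; post-emergence onto 2–3 leaf plants with 0.25% v/v surfactant, bottom-watered only. Ratings on a 0–100 phytotoxicity scale were taken at day 14.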

[10] = test system: green foxtail (Setaria viridis, SETVI); assay: as above; details: post-emerge, 14 days after application, rating scale 0-100
Outline: as §2

[11] = test system: large crabgrass (Digitaria sanguinalis, DIGSA); assay: as above; details: post-emerge, 14 days after application, rating scale 0-100
Outline: as §2

[12] = test system: barnyardgrass (Echinochloa crus-galli, ECHCG); assay: as above; details: post-emerge, 14 days after application, rating scale 0-100
Outline: as §2

[13] = test system: velvetleaf (Abutilon theophrasti, ABUTH); assay: as above; details: post-emerge, 14 days after application, rating scale 0-100
Outline: as §2

[14] = test system: lambsquarters (Chenopodium album, CHEAL); assay: as above; details: post-emerge, 14 days after application, rating scale 0-100
Outline: as §2

[15] = test system: sicklepod (Cassia obtusifolia, CASOB); assay: as above; details: post-emerge, 14 days after application, rating scale 0-100
Outline: as §2

[16] = test system: redroot pigweed (Amaranthus retroflexus, AMARE); assay: as above; details: post-emerge, 14 days after application
Outline: as §2

[17] = test system: ivyleaf morningglory (Ipomoea hederacea, IPOHE); assay: as above; details: post-emerge, 14 days after application, rating scale 0-100
Outline: as §2

[18] = test system: field corn (Zea mays L., var. Dekalb 535, CORN); assay: Pre-emerge test, crop safety; details: pre-emerge, 14 days after application, rating scale 0-100
Outline: (§3)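 Herbicidal damage is scored 0 (none) to 100 (complete plant death) two weeks after a simulated field spray. Rates span 15–1000 g ai/ha, delivered in acetone at 187 l/ha. For post-emergence treatments, plants have 2–3 leaves and the spray carries 0.25% v/v non-ionic surfactant.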

[19] = test system: upland rice (Oryza sp., var. Tebonnet, RICE); assay: Pre-emerge test, crop safety; details: pre-emerge, 14 days after application, rating scale 0-100
Outline: as §3

[20] = test system: redroot pigweed (Amaranthus retroflexus, AMARE); assay: Pre-emerge test, greenhouse herbicide activity screening; details: pre-emerge, 14 days after application, rating scale 0-100
Outline: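 Sandy loam pots; pre-emerge: sown 1 d pre-spray, surface-watered after, then bottom-watered. Post-emerge: sown 8–21 d before, 2–3 leaf stage, + 0.25% v/v NIS, bottom-watered. Acetone, 187 l/ha track spray, 15–1000 g ai/ha. 0–100 injury score, day 14.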

[21] = test system: field corn (Zea mays L., var. Dekalb 535, CORN); assay: Post-emerge test, crop safety; details: post-emerge, 14 days after application, rating scale 0-100
Outline: as §1

[22] = test system: upland rice (Oryza sp., var. Tebonnet, RICE); assay: Post-emerge test, crop safety; details: post-emerge, 14 days after application, rating scale 0-100
Outline: as §1

Compound: COc1c(Cl)cc(F)c(-n2c(=O)cc(C(F)(F)F)n(C)c2=O)c1NN=CC1CC1 [Compound 15-11]
- phytotoxicity rating SORHA ([1]; 63 g ai/ha): 100
- phytotoxicity rating SORHA ([1]; 250 g ai/ha): 100
- phytotoxicity rating SETVI ([2]; 63 g ai/ha): 100
- phytotoxicity rating SETVI ([2]; 250 g ai/ha): 100
- phytotoxicity rating DIGSA ([3]; 63 g ai/ha): 100
- phytotoxicity rating DIGSA ([3]; 250 g ai/ha): 100
- phytotoxicity rating ECHCG ([4]; 63 g ai/ha): 100
- phytotoxicity rating ECHCG ([4]; 250 g ai/ha): 100
- phytotoxicity rating ABUTH ([5]; 63 g ai/ha): 100
- phytotoxicity rating ABUTH ([5]; 250 g ai/ha): 100
- phytotoxicity rating CHEAL ([6]; 63 g ai/ha): 100
- phytotoxicity rating CHEAL ([6]; 250 g ai/ha): 100
- phytotoxicity rating CASOB ([7]; 63 g ai/ha): 100
- phytotoxicity rating CASOB ([7]; 250 g ai/ha): 100
- phytotoxicity rating IPOHE ([8]; 63 g ai/ha): 100
- phytotoxicity rating IPOHE ([8]; 250 g ai/ha): 100
- Post-emerge Herbicidal Activity SORHA (phytotoxicity rating) ([9]; 63 g ai/ha): 50
- Post-emerge Herbicidal Activity SORHA (phytotoxicity rating) ([9]; 250 g ai/ha): 99
- Post-emerge Herbicidal Activity SETVI (phytotoxicity rating) ([10]; 63 g ai/ha): 40
- Post-emerge Herbicidal Activity SETVI (phytotoxicity rating) ([10]; 250 g ai/ha): 80
- Post-emerge Herbicidal Activity DIGSA (phytotoxicity rating) ([11]; 63 g ai/ha): 50
- Post-emerge Herbicidal Activity DIGSA (phytotoxicity rating) ([11]; 250 g ai/ha): 95
- Post-emerge Herbicidal Activity ECHCG (phytotoxicity rating) ([12]; 63 g ai/ha): 50
- Post-emerge Herbicidal Activity ECHCG (phytotoxicity rating) ([12]; 250 g ai/ha): 99
- Post-emerge Herbicidal Activity ABUTH (phytotoxicity rating) ([13]; 63 g ai/ha): 100
- Post-emerge Herbicidal Activity ABUTH (phytotoxicity rating) ([13]; 250 g ai/ha): 100
- Post-emerge Herbicidal Activity CHEAL (phytotoxicity rating) ([14]; 63 g ai/ha): 100
- Post-emerge Herbicidal Activity CHEAL (phytotoxicity rating) ([14]; 250 g ai/ha): 100
- Post-emerge Herbicidal Activity CASOB (phytotoxicity rating) ([15]; 63 g ai/ha): 90
- Post-emerge Herbicidal Activity CASOB (phytotoxicity rating) ([15]; 250 g ai/ha): 100
- Post-emerge Herbicidal Activity AMARE (phytotoxicity rating) ([16]; 63 g ai/ha, rating scale 0-100 (0 no damage, 100 complete death)): 95
- Post-emerge Herbicidal Activity AMARE (phytotoxicity rating) ([16]; 250 g ai/ha, rating scale 0-100): 100
- Post-emerge Herbicidal Activity IPOHE (phytotoxicity rating) ([17]; 63 g ai/ha): 100
- Post-emerge Herbicidal Activity IPOHE (phytotoxicity rating) ([17]; 250 g ai/ha): 100
- phytotoxicity rating CORN ([18]; 63 g ai/ha): 100
- phytotoxicity rating CORN ([18]; 250 g ai/ha): 100
- phytotoxicity rating RICE ([19]; 63 g ai/ha): 100
- phytotoxicity rating RICE ([19]; 250 g ai/ha): 100
- phytotoxicity rating AMARE ([20]; 63 g ai/ha): 100
- phytotoxicity rating AMARE ([20]; 250 g ai/ha): 100
- Post-emerge Herbicidal Activity CORN (crop damage rating) ([21]; 63 g ai/ha): 45
- Post-emerge Herbicidal Activity CORN (crop damage rating) ([21]; 250 g ai/ha): 85
- Post-emerge Herbicidal Activity RICE (crop damage rating) ([22]; 63 g ai/ha): 65
- Post-emerge Herbicidal Activity RICE (crop damage rating) ([22]; 250 g ai/ha): 99
